Results taken from US9675580B2, “Method of treatment for enhancing exercise performance” (priority 2012, dated 2017).

Legend:
[1] = test system: SIRT-1 gene; assay: Real time PCR gene expression in mouse myotube: SIRT-1; assay type: cell-based; settings: C2C12 myotubes, 10, 30 and 100 μM, 16 hours, corrected with β-actin, FIG. 4D
Procedure: (§1) Mouse myoblasts were purchased from the Korean Cell Line Bank (KCLB), and base sequences of primers for β-actin, SIRT-1, PGC-1α, NRF-1 and PPAR-δ genes were as follows:
(§2) 1×10^7 C2C12 (mouse myoblasts) differentiated into myotubes using 2% horse serum […]. The mouse myotube was treated with myricetin by concentration and cultured for 16 hours, RNA was extracted from the myotube using TRizol, and then cDNA was synthesized through reverse transcription PCR (RT-PCR).
(§3) Real time PCR was performed using β-actin as a control and the primers for respective genes (95° C. for 3 minutes, <95° C. for 10 seconds, 60° C. for 10 seconds, 72° C. for 30 seconds>−39 cycles, 95° C. for 10 seconds, 65° C. for 5 seconds). The PGC-1α, NRF-1, PPAR-δ, and SIRT-1 were corrected with the β-actin, and the resulting value was obtained.

[2] = test system: ICR-series mice; assay: Grip strength test (maximum muscle strength); assay type: in vivo, mouse; settings: 50 mg/kg oral daily for two weeks, vs negative control, p<0.005 / p<0.00005, FIGS. 2A and 2B
Procedure: To measure an effect of myricetin on enhancing endurance exercise capacity of a mouse, ten 8-week-old ICR-series mice having a body weight of 30±5 g were used. As described in Example 1, the experimental animals were divided into two groups. The first group was determined as a negative control, and to the second group, myricetin was orally administered daily at a concentration of 50 mg/kg for two weeks. To measure a change in the maximum strength of a muscle due to myricetin, a grip strength test (Bioseb, France) was performed on the animals in the control group and the myricetin-administered group. Maximum grip strengths of the front paws and rear paws were measured by pulling a tail of the mouse backward while the mouse grabbed a grip strength tester. The grip strength was measured three times, and an average value was used.

[3] = test system: ICR mice; assay: Treadmill run to exhaustion (endurance exercise capacity); assay type: in vivo, mouse; settings: 50 mg/kg oral daily for two weeks, vs phosphate buffered saline control, p<0.0005, FIG. 1
Procedure: Ten 8-week-old ICR mice were purchased from KOATECH, precultured for 1 week, and then divided into two groups, each group having five mice. The first group was set up as a negative control by administering phosphate buffered saline, and to the second group, myricetin was orally administered daily at a concentration of 50 mg/kg for two weeks. To measure a change in endurance exercise capacity due to myricetin, the animals in the negative control and the myricetin-administered group were run on a treadmill (Panlab&Harvard, Spain). An exercise performance protocol was configured to make the mice run until exhaustion at 25 cm/sec for 20 minutes, 30 cm/sec for 20 minutes, 33 cm/sec for 20 minutes, 36 cm/sec for 20 minutes and 36 cm/sec for 15 minutes with a gradient of 5°, and 30 cm/sec for 15 minutes and 41 cm/sec with a gradient of 10°. To adapt the mice to running on the treadmill, the day before the experiment, they were run at 27 cm/sec for 10 minutes with a gradient of 5°. The mice were not fed for two hours before the running on the treadmill on the day of the experiment, and then the maximum exercise capacity of the experimental animals was measured after the running on the treadmill. […]

[4] = test system: ICR mice; assay: Rotarod test (sensorimotor function); assay type: in vivo, mouse; settings: 50 mg/kg oral daily for 2 weeks, 4 to 40 rpm, vs negative control, p<0.005, FIG. 3
Procedure: To confirm an effect of myricetin on a sensorimotor function of a mouse, 8-week-old ICR mice were purchased from KOATECH, precultured for 1 week, and divided into two groups, each group having 5 mice. As described in Example 1, the experimental animals were divided into two groups, and then the first group was determined as a negative control, and to the second group, myricetin was orally administered daily at a concentration of 50 mg/kg using a 1 ml syringe for 2 weeks.
To measure an effect of myricetin on the sensorimotor function, a rotarod test (Panlab&Harvard, Spain) was performed on the mice in the control group and the myricetin-administered group. The rotarod test was performed to measure motor coordination (exercise adaptation) and a sense of balance of the animal (Michel Pratte et al., Behavioural brain research 216:313-320, 2011; Medina R. et al., FEBS Lett. 180(1): 77-80, 1985).
A tail of the mouse was put on a rotarod, and a speed of the rotarod was increased from 4 to 40 rpm within 5 minutes by an increase of 4 rpm at 30-second intervals. The time during which the mouse stayed on the rotarod was measured. The experiment was repeated five times, and the time during which the mouse stayed the longest on the rotarod was used as a result value.

[5] = test system: NRF-1 gene; assay: Real time PCR gene expression in mouse myotube: NRF-1; assay type: cell-based; settings: C2C12 myotubes, 10, 30 and 100 μM, 16 hours, corrected with β-actin, FIG. 4B
Procedure: as §1, §2, §3

[6] = test system: PGC-1α gene; assay: Real time PCR gene expression in mouse myotube: PGC-1α; assay type: cell-based; settings: C2C12 myotubes, 10, 30 and 100 μM, 16 hours, corrected with β-actin, FIG. 4A
Procedure: as §1, §2, §3

[7] = test system: PPAR-δ gene; assay: Real time PCR gene expression in mouse myotube: PPAR-δ; assay type: cell-based; settings: C2C12 myotubes, 10, 30 and 100 μM, 16 hours, corrected with β-actin, FIG. 4C
Procedure: as §1, §2, §3

[8] = Change in body weight of SD rats; assay type: in vivo, rat; settings: 50 mg/kg for 5 days, 225 g before administration, control group 285 g, FIG. 5A
Procedure: 7-week-old SD rats were purchased from KOATECH, precultured for 1 week, and randomly divided into two groups, each group having 5 rats. First, 50 mg/kg of myricetin was administered into the test group, and phosphate buffered saline was administered into the control group for 5 days. A change in body weight was measured using an electric measure (CAS, China). Before administration, the body weights of the rats in each group were the same as 225 g on average, but after the end of the experiment, the body weights of the rats in the control group were 285 g on average, and the body weights of the rats in the myricetin-administered group were 275 g on average (FIG. 5A).

[9] = Daily food intake of SD rats (action metabolism meter); assay type: in vivo, rat; settings: 50 mg/kg for 5 days, FIG. 5B
Procedure: 7-week-old SD rats were purchased from KOATECH, precultured for 1 week, and randomly divided into two groups, each group having 5 rats. First, 50 mg/kg of myricetin was administered into the test group, and phosphate buffered saline was administered into the control group for 5 days. The investigation of food intake was performed by automatically measuring the daily food intake of the phosphate buffered saline-administered mouse and the myricetin-administered mouse using an action metabolism meter (Panlab&Harvard, Spain). The average food intake was determined as an average food intake of each of the five rats in one group.

Structure (SMILES): O=c1c(O)c(-c2cc(O)c(O)c(O)c2)oc2cc(O)cc(O)c12 [myricetin, 3,5,7-trihydroxy-2-(3,4,5-trihydroxyphenyl)-4-chromenone]
- expression of SIRT-1 compared to the control group [1]: increased two to three times
- maximum grip strength of front paws and rear paws (maximum muscle strength) [2]: increased
- time run on the treadmill until exhaustion (maximum exercise capacity) [3]: longer
- time during which the mouse stayed on the rotarod [4]: longer
- expression of NRF-1 compared to the control group [5]: increased two to three times
- expression of PGC-1α compared to the control group [6]: increased two to three times
- expression of PPAR-δ compared to the control group [7]: increased two to three times
- body weight on average after the end of the experiment [8]: 275 g
- average daily food intake vs phosphate buffered saline-administered group [9]: smaller
